Assay results from patent US20260315476A1, “COMBINATION TREATMENT METHODS FOR CANCER WITH TP53 MUTATION” (HO'OLA THERAPEUTICS INC., priority 2022, published 2026).
Where two headings read alike, the source gives them in different places.

Assays:
[1] = system: chronic lymphocytic leukemia (CLL); assay: Clinical response rates in CLL (Phase 1/2 study, Parts 1 & 2 and Part 3); assay type: in vivo, human; conditions: Part 3, TN
[2] = system: mantle cell lymphoma (MCL); assay: Overall survival in MCL; assay type: in vivo, human; conditions: MCL patients
Description: (§1) In Phase 1 study (Part 1), patients with relapsed/refractory (R/R) mantle cell lymphoma (MCL) and R/R chronic lymphocytic leukemia/small lymphocytic lymphoma (CLL/SLL) were enrolled (CLL n=18, MCL n=12). 2, 4, 8, and 16 mg/kg and 300 mg and 600 mg doses of zilovertamab (formerly known as cirmtuzumab) were evaluated. Ibrutinib was added to the treatment after 1 month at dose of 420 mg for CLL, 560 mg for MCL. The recommended dosing regime was 600 mg of zilovertamab (i.v.) once every 2 weeks by three times and then once every 4 weeks in combination with ibrutinib at approved doses per indication (i.e., 420 mg for CLL, 560 mg for MCL).
(§2) In Phase 2 study, patients were divided into two study groups. In study group 1 (Part 2), patients with R/R CLL, R/R MCL, and marginal zone lymphoma (MZL) were enrolled (CLL n=16, MCL n=21). The patients were treated with the recommended dosing regimen from Phase 1 study, that is, zilovertamab (600 mg) and ibrutinib at approved dose (420 mg CLL, 560 mg MCL and MZL). In study group 2 (Part 3), patients with R/R CLL (n=31) were enrolled and randomly treated with either zilovertamab in combination with ibrutinib or ibrutinib alone.

[3] = system: mantle cell lymphoma (MCL); conditions: MCL Rule 2017, Relapsed/Refractory, N = 370; cited from earlier work
[4] = system: chronic lymphocytic leukemia (CLL); assay: Overall survival in CLL; assay type: in vivo, human; conditions: CLL patients
Description: as §1, §2

[5] = system: mantle cell lymphoma (MCL); conditions: historical, cited from earlier work
[6] = MCL patients treated with BTKi (e.g., ibrutinib) alone; cited from earlier work
[7] = system: chronic lymphocytic leukemia (CLL); conditions: Byrd 2019, cited from earlier work
[8] = Patient disposition and overall tolerability; assay type: in vivo, human; conditions: CLL Part 3
Description: as §1, §2

[9] = Treatment emergent adverse events, CLL Part 3; assay type: in vivo, human
Description: as §2

[10] = system: mantle cell lymphoma (MCL); conditions: historical, cited from earlier work; remark: listed apart in the source
[11] = system: chronic lymphocytic leukemia (CLL); assay: Clinical response rates in CLL (Phase 1/2 study, Parts 1 & 2 and Part 3); assay type: in vivo, human
Description: as §1, §2

[12] = Rule 2019, No p53 mutation, N = 124
[13] = Rule 2019, p53 mutation, N = 20

C=CC(=O)N1CCC[C@@H](n2nc(-c3ccc(Oc4ccccc4)cc3)c3c(N)ncnc32)C1 [ibrutinib, 1-[(3R)-3[4-Amino-3-(4-phenoxyphenyl)-1H-pyrazolo[3,4-d]pyrimidin-1-yl]piperidin-1-yl]prop-2-en-1-one]
CR [1]: 0 n | PD [1]: 0 n | median OS [2]: not reached | median OS [3]: 25.0 | median OS [4]: not reached | M PFS (95% CI) ([5]; Rule 2019, No p53 Mutation): 12.0 (7.1, 15.6) | M PFS (95% CI) ([5]; Rule 2019, p53 Mutation): 4.0 (2.1, 8.3) | Grade 3 or 4 neutrophil decrease [6]: 29% | Landmark PFS ([7]; 24 months, 1 or 2 prior systemic therapies): ~82% | Landmark PFS ([7]; 24 months, >2 prior systemic therapies): ~65% | Landmark PFS ([7]; 36 months, 1 or 2 prior systemic therapies): ~73% | Landmark PFS ([7]; 36 months, >2 prior systemic therapies): ~50% | Study discontinuation: Death [8]: 0 n | Atrial Fibrillation, Grades 1-2 [9]: 1 (10.0) n (%) | Atrial Fibrillation, Grades ≥3 [9]: 1 (10.0) n (%) | Atrial Fibrillation, Overall [9]: 2 (20.0) n (%) | Back pain, Grades 1-2 [9]: 2 (20.0) n (%) | Back pain, Grades ≥3 [9]: 0 n (%) | Back pain, Overall [9]: 2 (20.0) n (%) | Constipation, Grades 1-2 [9]: 3 (30.0) n (%) | Constipation, Grades ≥3 [9]: 0 n (%) | Constipation, Overall [9]: 3 (30.0) n (%) | Contusion, Grades 1-2 [9]: 3 (30.0) n (%) | Contusion, Grades ≥3 [9]: 0 n (%) | Contusion, Overall [9]: 3 (30.0) n (%) | Coronavirus Infection, Grades 1-2 [9]: 1 (10.0) n (%) | Coronavirus Infection, Grades ≥3 [9]: 1 (10.0) n (%) | Coronavirus Infection, Overall [9]: 2 (20.0) n (%) | Diarrhea, Grades 1-2 [9]: 4 (40.0) n (%) | Diarrhea, Grades ≥3 [9]: 0 n (%) | Diarrhea, Overall [9]: 4 (40.0) n (%) | Dizziness, Grades 1-2 [9]: 3 (30.0) n (%) | Dizziness, Grades ≥3 [9]: 0 n (%) | Dizziness, Overall [9]: 3 (30.0) n (%) | Fall, Grades 1-2 [9]: 2 (20.0) n (%) | Fall, Grades ≥3 [9]: 0 n (%) | Fall, Overall [9]: 2 (20.0) n (%) | Fatigue, Grades 1-2 [9]: 2 (20.0) n (%) | Fatigue, Grades ≥3 [9]: 0 n (%) | Fatigue, Overall [9]: 2 (20.0) n (%) | Headache, Grades 1-2 [9]: 3 (30.0) n (%) | Headache, Grades ≥3 [9]: 1 (10.0) n (%) | Headache, Overall [9]: 4 (40.0) n (%) | Hematuria, Grades 1-2 [9]: 3 (30.0) n (%) | Hematuria, Grades ≥3 [9]: 0 n (%) | Hematuria, Overall [9]: 3 (30.0) n (%) | Hemoglobin decrease, Grades 1-2 [9]: 6 (60.0) n (%) | Hemoglobin decrease, Grades ≥3 [9]: 1 (10.0) n (%) | Hemoglobin decrease, Overall [9]: 7 (70.0) n (%) | Hypertension, Grades 1-2 [9]: 1 (10.0) n (%) | Hypertension, Grades ≥3 [9]: 1 (10.0) n (%) | Hypertension, Overall [9]: 2 (20.0) n (%) | Muscle spasms, Grades 1-2 [9]: 2 (20.0) n (%) | Muscle spasms, Grades ≥3 [9]: 0 n (%) | Muscle spasms, Overall [9]: 2 (20.0) n (%) | Nausea, Grades 1-2 [9]: 3 (30.0) n (%) | Nausea, Grades ≥3 [9]: 0 n (%) | Nausea, Overall [9]: 3 (30.0) n (%) | Neutrophils decrease, Grades 1-2 [9]: 1 (10.0) n (%) | Neutrophils decrease, Grades ≥3 [9]: 2 (20.0) n (%) | Neutrophils decrease, Overall [9]: 3 (30.0) n (%) | Platelets decrease, Grades 1-2 [9]: 7 (70.0) n (%) | Platelets decrease, Grades ≥3 [9]: 1 (10.0) n (%) | Platelets decrease, Overall [9]: 8 (80.0) n (%) | Pneumonia, Grades 1-2 [9]: 0 n (%) | Pneumonia, Grades ≥3 [9]: 2 (20.0) n (%) | Pneumonia, Overall [9]: 2 (20.0) n (%) | Pruritis, Grades 1-2 [9]: 2 (20.0) n (%) | Pruritis, Grades ≥3 [9]: 0 n (%) | Pruritis, Overall [9]: 2 (20.0) n (%) | Upper respiratory tract infection, Grades 1-2 [9]: 3 (30.0) n (%) | Upper respiratory tract infection, Grades ≥3 [9]: 0 n (%) | Upper respiratory tract infection, Overall [9]: 3 (30.0) n (%) | CR ([10]; Rule 2017, N = 370): 74 (20.0) n (%) | ORR ([10]; Rule 2017, N = 370): 234 (63.2) n (%) | PD ([10]; Rule 2017, N = 370): 86 (23.2) n (%) | CR [10, 12]: 31 (25.0) n (%) | ORR [10, 12]: 87 (70.2) n (%) | PR [10, 12]: 56 (45.2) n (%) | CR [10, 13]: 0 n (%) | ORR [10, 13]: 11 (55.0) n (%) | PR [10, 13]: 11 (55.0) n (%) | Complete Response (CR) ([11]; CLL Part 3): 1 (14.3) n (%) | Median Duration of response (95% CI) ([11]; CLL Part 3): NR (8.3, NE) | Overall Response Rate (ORR) ([11]; CLL Part 3): 7 (100.0) n (%) | Partial Response (PR) ([11]; CLL Part 3): 6 (85.7) n (%) | CR ([11]; Part 3, 1 Prior): 0 n | PD ([11]; Part 3, 1 Prior): 0 n | PD ([11]; Part 3, Overall): 0 n | CR ([11]; Part 3, ≥3 Prior): 0 n | Median DoR ([11]; Part 3, ≥3 Prior): 8.3 months | PD ([11]; Part 3, ≥3 Prior): 0 n
